Experiment [1] relates to Luciferase-encoding HCMV, AD169 strain. Put plainly: CMV Luciferase assay (cellular herpesvirus replication). The format is cell-based. The essentials:
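Neonatal human dermal fibroblasts were pretreated 1 h with compound (final 0.0159–50 μM or 0.00318–10 μM, 0.5% DMSO), then infected at MOI 1 with AD169 carrying pp28-promoter luciferase. After 72 h at 37 °C, Renilla-Glo luminescence normalized to no-virus and virus-only controls; EC50 by 4-parameter logistic model.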

For experiment [2], the target named is human CMV DNA polymerase UL54 (Human cytomegalovirus (strain AD169) (HHV-5) (Human herpesvirus 5), UniProt P08546). The experiment is described as follows: CMV polymerase biochemical assay (molecular beacon-based). The essentials:
(§1)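 Readout was beacon fluorescence (ex 480, em 535 nm), used to derive IC50. Each dNTP was at 1.25 uM, with 200 nM primer and 100 nM beacon, after a 30-min RT inhibitor preincubation. Enzyme was 625 pM for HSV UL30 (20 min RT reaction) or 100 pM for CMV UL54 (60 min RT), both sf9-expressed MBP fusions, in pH 7.5 Tris buffer with MgCl2.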

In experiment [3] the target is human HSV DNA polymerase UL30 (Human herpesvirus 1 (strain 17) (HHV-1) (Human herpes simplex virus 1), UniProt P04293). Put plainly: HSV polymerase biochemical assay (molecular beacon-based). The method in brief:
as §1

Setting [4] is: Human betaherpesvirus 5, AD169, read-out: CMV-Luc Cellular EC50.
The mark [5] stands for this setting: read-out: CMV-Luc Cellular EC50.

Like-named read-outs stand apart in the source and are kept apart here.

Broadly, the EC50 is the concentration at which the effect is half-maximal. As usually defined, the IC50 is the concentration that gives 50% inhibition. The low end stands for inhibition by little substance, the high end for a need for much substance. In the case of `N#Cc1ccc(CNC(=O)c2ccc3n(c2=O)CCN(CC2(S(=O)(=O)C4(F)CC4)CC2)C3=O)cc1` [Example 77-1, N-(4-cyanobenzyl)-2-((1-((1-fluorocyclopropyl)sulfonyl)cyclopropyl)methyl)-1,6-dioxo-2,3,4,6-tetrahydro-1H-pyrido[1,2-a]pyrazine-7-carboxamide], in experiment [1] (setting [4]), the EC50 was determined as 0.126 µM. For the same molecule, the figures for the IC50 in experiment [2] and in experiment [3] were 0.0032 µM and 0.0954 µM, respectively.
The like results for `N#Cc1ccc(CNC(=O)c2ccc3n(c2=O)CCN(CC2(S(=O)(=O)C4(F)CC4)CC2)C3=O)cc1F` [Example 77-2] were, in that order, 0.0577 µM, 0.0019 µM and 0.0772 µM.
The like results for `O=C(NCc1ccc(Cl)cc1)c1ccc2n(c1=O)CCN(CC1(S(=O)(=O)C3CCC3)CC1)C2=O` [Example 78, N-(4-chlorobenzyl)-2-((1-(cyclobutylsulfonyl)cyclopropyl)methyl)-1,6-dioxo-2,3,4,6-tetrahydro-1H-pyrido[1,2-a]pyrazine-7-carboxamide] were, in that order, 0.0157 µM, 0.001 µM and 0.03 µM.
On the same counts, the results for `N#Cc1ccc(CNC(=O)c2ccc3n(c2=O)CCN(CC2(S(=O)(=O)C4CCC4)CC2)C3=O)cc1` [Example 79-1] are 0.0337 µM, 0.0013 µM and 0.0334 µM.
Consider `N#Cc1ccc(CNC(=O)c2ccc3n(c2=O)CCN(CC2(S(=O)(=O)C4CCC4)CC2)C3=O)cc1F` [Example 79-2], for which the EC50 in experiment [1] (setting [4]) turned out to be 0.0343 µM. Also, the IC50 in experiment [2] came to 0.002 µM; in experiment [3], 0.0654 µM.
Consider `O=C(NCc1ccc(Cl)cc1)c1ccc2n(c1=O)CCN(CC1(S(=O)(=O)C3CCNC3)CC1)C2=O` (stereo not drawn) [Example 80-1, N-(4-chlorobenzyl)-1,6-dioxo-2-((1-(pyrrolidin-3-ylsulfonyl)cyclopropyl)methyl)-2,3,4,6-tetrahydro-1H-pyrido[1,2-a]pyrazine-7-carboxamide], for which the EC50 in experiment [1] (setting [4]) was 0.215 µM. In addition, the IC50 in experiment [2] was determined as 0.0034 µM; in experiment [3], 0.0976 µM.
For the molecule `CN1CCC(S(=O)(=O)C2(CN3CCn4c(ccc(C(=O)NCc5ccc(Cl)cc5)c4=O)C3=O)CC2)C1` (stereo not drawn) [Example 80-2, N-(4-chlorobenzyl)-2-((1-((1-methylpyrrolidin-3-yl)sulfonyl)cyclopropyl)methyl)-1,6-dioxo-2,3,4,6-tetrahydro-1H-pyrido[1,2-a]pyrazine-7-carboxamide], the EC50 in experiment [1] (setting [4]) came to 0.247 µM. For the same molecule, the results for the IC50 in experiment [2] and in experiment [3] were 0.0097 µM and 0.177 µM, respectively.
On the same counts, the results for `N#Cc1ccc(CNC(=O)c2ccc3n(c2=O)CCN(CC2(S(=O)(=O)C4CCNC4)CC2)C3=O)cc1F` (stereo not drawn) [Example 81-1] are 1.07 µM, 0.0038 µM and 0.152 µM.
`CN1CCC(S(=O)(=O)C2(CN3CCn4c(ccc(C(=O)NCc5ccc(C#N)c(F)c5)c4=O)C3=O)CC2)C1` (stereo not drawn) [Example 81-2]: the EC50 in experiment [1] (setting [4]) stood at 0.486 µM. Also, the IC50 worked out at 0.0113 µM in experiment [2] and 0.204 µM in experiment [3].
For `N#Cc1ccc(CNC(=O)c2ccc3n(c2=O)CCN(CC2(S(=O)(=O)C4CCNC4)CC2)C3=O)cc1` (stereo not drawn) [Example 81-3], the EC50 in experiment [1] (setting [4]) amounted to 1.19 µM. Besides, the results for the IC50 in experiment [2] and in experiment [3] were 0.007 µM and 0.216 µM, respectively.
Regarding `CN1CCC(S(=O)(=O)C2(CN3CCn4c(ccc(C(=O)NCc5ccc(C#N)cc5)c4=O)C3=O)CC2)C1` (stereo not drawn) [Example 81-4], the EC50 in experiment [1] (setting [4]) worked out at 1.08 µM. In addition, the IC50 turned out to be 0.0233 µM in experiment [2] and 0.474 µM in experiment [3].
As to `N#Cc1ccc(CNC(=O)c2ccc3n(c2=O)CCN(CC2CCCS2(=O)=O)C3=O)cc1F` (stereo not drawn) [Example 82, N-(4-cyano-3-fluorobenzyl)-2-((1,1-dioxidotetrahydrothiophen-2-yl)methyl)-1,6-dioxo-2,3,4,6-tetrahydro-1H-pyrido[1,2-a]pyrazine-7-carboxamide], in experiment [1] (setting [4]), the EC50 turned out to be 10 µM. Besides, the values for the half-inhibitory concentration (IC50) in experiment [2] and in experiment [3] were 1.09 µM and 20.9 µM, respectively.
On to `N#Cc1ccc(CNC(=O)c2ccc3n(c2=O)CCN(CC2(S(=O)(=O)C4CC(F)(F)C4)CC2)C3=O)cc1` [Example 83, N-(4-cyanobenzyl)-2-((1-((3,3-difluorocyclobutyl)sulfonyl)cyclopropyl)methyl)-1,6-dioxo-2,3,4,6-tetrahydro-1H-pyrido[1,2-a]pyrazine-7-carboxamide], for which, in experiment [1] (setting [4]), the EC50 came to 0.146 µM. The values for the IC50 in experiment [2] and in experiment [3] were 0.0044 µM and 0.101 µM, respectively.
The like results for `N#Cc1ccc(CNC(=O)c2ccc3n(c2=O)CCN(CC2(S(=O)(=O)N4CC(F)(F)C4)CC2)C3=O)cc1` [Example 84-1, N-(4-cyanobenzyl)-2-((1-((3,3-difluoroazetidin-1-yl)sulfonyl)cyclopropyl)methyl)-1,6-dioxo-2,3,4,6-tetrahydro-1H-pyrido[1,2-a]pyrazine-7-carboxamide] were, in that order, 0.0696 µM, 0.0039 µM and 0.102 µM.
The like results for `N#Cc1ccc(CNC(=O)c2ccc3n(c2=O)CCN(CC2(S(=O)(=O)N4CC(F)(F)C4)CC2)C3=O)cc1F` [Example 84-2] were, in that order, 0.0548 µM, 0.0028 µM and 0.0806 µM.
On the same counts, the results for `O=C(NCc1ccc(Cl)cc1)c1ccc2n(c1=O)CCN(CC1(S(=O)(=O)N3CC(F)(F)C3)CC1)C2=O` [Example 84-3] are 0.031 µM, 0.0014 µM and 0.0526 µM.
In the case of `Cc1cc(C(=O)NCc2ccc(C#N)cc2)c(=O)n2c1C(=O)N(CC1(S(C)(=O)=O)CC1)CC2` [Example 85, N-(4-cyanobenzyl)-9-methyl-2-((1-(methylsulfonyl)cyclopropyl)methyl)-1,6-dioxo-2,3,4,6-tetrahydro-111-pyrido[1,2-a]pyrazine-7-carboxamide], in experiment [1] (setting [5]), the EC50 worked out at 0.177 µM. In addition, the IC50 is 0.0047 µM in experiment [2] and 0.103 µM in experiment [3].
`Cc1cc(C(=O)NCc2ccc(F)cc2)c(=O)n2c1C(=O)N(CC1(S(C)(=O)=O)CC1)CC2` [Example 86-1]: the half-maximal effective concentration (EC50) in experiment [1] (setting [4]) came out at 1.52 µM. The results for the IC50 in experiment [2] and in experiment [3] were 0.0112 µM and 0.287 µM, respectively.
For `Cc1cc(C(=O)NCc2ccc(C#N)c(F)c2)c(=O)n2c1C(=O)N(CC1(S(C)(=O)=O)CC1)CC2` [Example 86-2], the EC50 in experiment [1] (setting [4]) came to 0.226 µM. The figures for the IC50 in experiment [2] and in experiment [3] were 0.0046 µM and 0.276 µM, respectively.
`Cc1cc(C(=O)NCc2ccc(Cl)cc2)c(=O)n2c1C(=O)N(CC1(S(C)(=O)=O)CC1)CC2` [Example 86-3]: the EC50 in experiment [1] (setting [5]) is 0.0346 µM. Also, the figures for the IC50 in experiment [2] and in experiment [3] were 0.0018 µM and 0.0453 µM, respectively.
`O=C(NCc1ccc(Cl)cc1)c1ccc2n(c1=O)CCN(CC1(S(=O)(=O)N3CCC3)CC1)C2=O` [Example 87, 2-((1-(azetidin-1-ylsulfonyl)cyclopropyl)methyl)-N-(4-chlorobenzyl)-1,6-dioxo-2,3,4,6-tetrahydro-1H-pyrido[1,2-a]pyrazine-7-carboxamide]: in experiment [1] (setting [4]), the EC50 was determined as 0.0257 µM. For the same molecule, the values for the IC50 in experiment [2] and in experiment [3] were 0.0012 µM and 0.0351 µM, respectively.
`N#Cc1ccc(CNC(=O)c2ccc3n(c2=O)CCN(CC2(S(=O)(=O)N4CCC4)CC2)C3=O)cc1F` [Example 88-1, 2-((1-(azetidin-1-ylsulfonyl)cyclopropyl)methyl)-N-(4-cyano-3-fluorobenzyl)-1,6-dioxo-2,3,4,6-tetrahydro-1H-pyrido[1,2-a]pyrazine-7-carboxamide]: in experiment [1] (setting [4]), the EC50 came out at 0.0242 µM. Also, the IC50 is 0.002 µM in experiment [2] and 0.0651 µM in experiment [3].
On the same counts, the results for `N#Cc1ccc(CNC(=O)c2ccc3n(c2=O)CCN(CC2(S(=O)(=O)N4CCC4)CC2)C3=O)cc1` [Example 88-2] are 0.0395 µM, 0.0032 µM and 0.0735 µM.
On the same counts, the results for `O=C(NCc1ccc(Cl)cc1)c1ccc2n(c1=O)CCN(CC1(N3CCOC3=O)CC1)C2=O` [Example 89-1, N-(4-chlorobenzyl)-1,6-dioxo-2-((1-(2-oxooxazolidin-3-yl)cyclopropyl)methyl)-2,3,4,6-tetrahydro-1H-pyrido[1,2-a]pyrazine-7-carboxamide] are 4.9 µM, 0.0793 µM and 1.26 µM.
On the same counts, the results for `N#Cc1ccc(CNC(=O)c2ccc3n(c2=O)CCN(CC2(N4CCOC4=O)CC2)C3=O)cc1` [Example 89-2] are 3.33 µM, 0.174 µM and 2.52 µM.
On to `CN(C)S(=O)(=O)C1(CN2CCn3c(ccc(C(=O)NCc4ccc(Cl)cc4)c3=O)C2=O)CC1` [Example 90-1, N-(4-chlorobenzyl)-2-((1-(N,N-dimethylsulfamoyl)cyclopropyl)methyl)-1,6-dioxo-2,3,4,6-tetrahydro-1H-pyrido[1,2-a]pyrazine-7-carboxamide], for which, in experiment [1] (setting [4]), the EC50 was 0.0134 µM. Also, the IC50 in experiment [2] was found to be 0.0004 µM; in experiment [3] it was 0.0123 µM.
On the same counts, the results for `CC1CN(CCN(C)S(C)(=O)=O)C(=O)c2ccc(C(=O)NCc3ccc(Cl)cc3)c(=O)n21` (stereo not drawn) [Example 91, N-(4-chlorobenzyl)-4-methyl-2-(2-(N-methylmethylsulfonamido)ethyl)-1,6-dioxo-2,3,4,6-tetrahydro-1H-pyrido[1,2-a]pyrazine-7-carboxamide] are 2.48 µM, 0.186 µM and 2.25 µM.

For the origin of these results see US12466821B2 (Novartis AG, priority 2018, dated 2025).
